Data reported in patent US20090137664A1, “SAURURUS CERNUUS COMPOUNDS THAT INHIBIT CELLULAR RESPONSES TO HYPOXIA” (priority 2003, published 2009).

Legend:
Format in all cases: cell-based
NCI-H322M = assay: NCI in vitro cell line screen (SRB), Non-Small Cell Lung Cancer NCI-H322M
Method: (§1) For exemplary purposes, an embodiment of the present invention was tested for activity with respect to certain cancer cell lines. The following Tables show results from in vitro 60-cell line antitumor testing from the US National Cancer Institute Developmental Therapeutics Program (NCI-DTP) on compound 2. The testing was in connection with the NCI's In Vitro Cell Line Screening Project (IVCLSP). Detailed information regarding the experiments and their interpretation is available from the NCI.

HOP-92 = assay: NCI in vitro cell line screen (SRB), Non-Small Cell Lung Cancer HOP-92
Method: as §1

KM12 = assay: NCI in vitro cell line screen (SRB), Colon Cancer KM12
Method: as §1

SK-MEL-2 = assay: NCI in vitro cell line screen (SRB), Melanoma SK-MEL-2
Method: as §1

NCI-H522 = assay: NCI in vitro cell line screen (SRB), Non-Small Cell Lung Cancer NCI-H522
Method: as §1

K-562 = assay: NCI in vitro cell line screen (SRB), Leukemia K-562
Method: as §1

[1] = Homo sapiens, read-out: LC50 (the source's name)

For `COc1ccc([C@@H](O)[C@@H](C)Oc2ccc([C@H]3O[C@H](c4ccc(O[C@H](C)[C@H](O)c5ccc6c(c5)OCO6)c(OC)c4)[C@H](C)[C@H]3C)cc2OC)cc1OC` [Compound 2, manassantin B], the “Percent Growth” value (NCI-H322M; Log10 Concentration −5.0 Molar) was 59%, the “Mean Optical Densities” value (NCI-H322M; Log10 Concentration −6.0 Molar) was 1.380 and the “Percent Growth” value (NCI-H322M; Log10 Concentration −6.0 Molar) was 89%. The “Mean Optical Densities” value (NCI-H322M; Log10 Concentration −7.0 Molar) was 1.370, the “Percent Growth” value (NCI-H322M; Log10 Concentration −7.0 Molar) was 86% and the “Mean Optical Densities” value (NCI-H322M; Log10 Concentration −8.0 Molar) was 1.315. For the same compound, the “Percent Growth” value (NCI-H322M; Log10 Concentration −8.0 Molar) was 72%, the TGI (HOP-92) was 2.45E−5 Molar and the GI50 (HOP-92; Homo sapiens) was 1.98 µM. The LC50 (HOP-92; Homo sapiens) was greater than 100 µM, the “Mean Optical Densities” value (HOP-92; Log10 Concentration −4.0 Molar) was 0.490 and the “Percent Growth” value (HOP-92; Log10 Concentration −4.0 Molar) was −30%. The “Mean Optical Densities” value (HOP-92; Log10 Concentration −5.0 Molar) was 0.744, the “Percent Growth” value (HOP-92; Log10 Concentration −5.0 Molar) was 19% and the “Mean Optical Densities” value (HOP-92; Log10 Concentration −6.0 Molar) was 0.846. For the same compound, the “Percent Growth” value (HOP-92; Log10 Concentration −6.0 Molar) was 63%, the “Mean Optical Densities” value (HOP-92; Log10 Concentration −7.0 Molar) was 0.947 and the “Percent Growth” value (HOP-92; Log10 Concentration −7.0 Molar) was 107%. The “Mean Optical Densities” value (HOP-92; Log10 Concentration −8.0 Molar) was 0.971, the “Percent Growth” value (HOP-92; Log10 Concentration −8.0 Molar) was 117% and the TGI (KM12) was greater than 1.00E−4 Molar. The GI50 (KM12; Homo sapiens) was 7.78 µM, the CC50 (KM12; [1]) was greater than 100 µM and the “Mean Optical Densities” value (KM12; Log10 Concentration −4.0 Molar) was 1.287. The “Percent Growth” value (KM12; Log10 Concentration −4.0 Molar) was 50%, the “Mean Optical Densities” value (KM12; Log10 Concentration −5.0 Molar) was 1.205 and the “Percent Growth” value (KM12; Log10 Concentration −5.0 Molar) was 44%. For the same compound, the “Mean Optical Densities” value (KM12; Log10 Concentration −6.0 Molar) was 1.983, the “Percent Growth” value (KM12; Log10 Concentration −6.0 Molar) was 98% and the “Mean Optical Densities” value (KM12; Log10 Concentration −7.0 Molar) was 1.876. For the same compound, the “Percent Growth” value (KM12; Log10 Concentration −7.0 Molar) was 90%, the “Mean Optical Densities” value (KM12; Log10 Concentration −8.0 Molar) was 1.960 and the “Percent Growth” value (KM12; Log10 Concentration −8.0 Molar) was 96%. The TGI (SK-MEL-2) was greater than 1.00E−4 Molar, the GI50 (SK-MEL-2; Homo sapiens) was greater than 100 µM and the CC50 (SK-MEL-2; [1]) was greater than 100 µM. For the same compound, the “Mean Optical Densities” value (SK-MEL-2; Log10 Concentration −4.0 Molar) was 0.764, the “Percent Growth” value (SK-MEL-2; Log10 Concentration −4.0 Molar) was 54% and the “Mean Optical Densities” value (SK-MEL-2; Log10 Concentration −5.0 Molar) was 0.928. For the same compound, the “Percent Growth” value (SK-MEL-2; Log10 Concentration −5.0 Molar) was 78%, the “Mean Optical Densities” value (SK-MEL-2; Log10 Concentration −6.0 Molar) was 1.066 and the “Percent Growth” value (SK-MEL-2; Log10 Concentration −6.0 Molar) was 98%. The “Mean Optical Densities” value (SK-MEL-2; Log10 Concentration −7.0 Molar) was 0.900, the “Percent Growth” value (SK-MEL-2; Log10 Concentration −7.0 Molar) was 74% and the “Mean Optical Densities” value (SK-MEL-2; Log10 Concentration −8.0 Molar) was 1.020. For the same compound, the “Percent Growth” value (SK-MEL-2; Log10 Concentration −8.0 Molar) was 92%, the TGI (NCI-H522) was greater than 1.00E−4 Molar and the GI50 (NCI-H522; Homo sapiens) was 3.38 µM. The CC50 (NCI-H522; [1]) was greater than 100 µM, the “Mean Optical Densities” value (NCI-H522; Log10 Concentration −4.0 Molar) was 0.760 and the “Percent Growth” value (NCI-H522; Log10 Concentration −4.0 Molar) was 9%. For the same compound, the “Mean Optical Densities” value (NCI-H522; Log10 Concentration −5.0 Molar) was 0.919, the “Percent Growth” value (NCI-H522; Log10 Concentration −5.0 Molar) was 35% and the “Mean Optical Densities” value (NCI-H522; Log10 Concentration −6.0 Molar) was 1.119. For the same compound, the “Percent Growth” value (NCI-H522; Log10 Concentration −6.0 Molar) was 67%, the “Mean Optical Densities” value (NCI-H522; Log10 Concentration −7.0 Molar) was 1.099 and the “Percent Growth” value (NCI-H522; Log10 Concentration −7.0 Molar) was 64%. The “Mean Optical Densities” value (NCI-H522; Log10 Concentration −8.0 Molar) was 1.087, the “Percent Growth” value (NCI-H522; Log10 Concentration −8.0 Molar) was 62% and the TGI (K-562) was greater than 1.00E−4 Molar. The LC50 (concentration killing 50% of cells) (K-562; Homo sapiens, K562) was greater than 100 µM, the “Mean Optical Densities” value (K-562; Log10 Concentration −4.0 Molar) was 0.327 and the “Percent Growth” value (K-562; Log10 Concentration −4.0 Molar) was 28%. For the same compound, the “Mean Optical Densities” value (K-562; Log10 Concentration −5.0 Molar) was 0.394, the “Percent Growth” value (K-562; Log10 Concentration −5.0 Molar) was 37% and the “Mean Optical Densities” value (K-562; Log10 Concentration −6.0 Molar) was 0.561. For the same compound, the “Percent Growth” value (K-562; Log10 Concentration −6.0 Molar) was 61%, the “Mean Optical Densities” value (K-562; Log10 Concentration −7.0 Molar) was 0.500 and the “Percent Growth” value (K-562; Log10 Concentration −7.0 Molar) was 53%. The “Mean Optical Densities” value (K-562; Log10 Concentration −8.0 Molar) was 0.470 and the “Percent Growth” value (K-562; Log10 Concentration −8.0 Molar) was 48%.
